According to US11110082B2, “Tyrosine kinase inhibitors” (Rigel Pharmaceuticals, Inc., priority 2016, dated 2021):
pEC50: −log10 of the molar value.

biological target: T1, MerTK (Homo sapiens, UniProt Q12866); assay: PAKT HTRF-HUVEC assay (pAkt Ser473 HTRF after anti-human MerTK-XL stimulation); assay type: cell-based; settings: HUVEC cells, 1 hour compound, stimulated with anti-human MerTK-XL 1 ug/mL for 10 minutes, read-out: inhibition of MerTK
T1 construct: Seed HUVECs (10K cells/well) in EBM-2 complete media; host or cells: HUVEC (primary human umbilical vein endothelial cells)
T1 sequence (Q12866 21-999): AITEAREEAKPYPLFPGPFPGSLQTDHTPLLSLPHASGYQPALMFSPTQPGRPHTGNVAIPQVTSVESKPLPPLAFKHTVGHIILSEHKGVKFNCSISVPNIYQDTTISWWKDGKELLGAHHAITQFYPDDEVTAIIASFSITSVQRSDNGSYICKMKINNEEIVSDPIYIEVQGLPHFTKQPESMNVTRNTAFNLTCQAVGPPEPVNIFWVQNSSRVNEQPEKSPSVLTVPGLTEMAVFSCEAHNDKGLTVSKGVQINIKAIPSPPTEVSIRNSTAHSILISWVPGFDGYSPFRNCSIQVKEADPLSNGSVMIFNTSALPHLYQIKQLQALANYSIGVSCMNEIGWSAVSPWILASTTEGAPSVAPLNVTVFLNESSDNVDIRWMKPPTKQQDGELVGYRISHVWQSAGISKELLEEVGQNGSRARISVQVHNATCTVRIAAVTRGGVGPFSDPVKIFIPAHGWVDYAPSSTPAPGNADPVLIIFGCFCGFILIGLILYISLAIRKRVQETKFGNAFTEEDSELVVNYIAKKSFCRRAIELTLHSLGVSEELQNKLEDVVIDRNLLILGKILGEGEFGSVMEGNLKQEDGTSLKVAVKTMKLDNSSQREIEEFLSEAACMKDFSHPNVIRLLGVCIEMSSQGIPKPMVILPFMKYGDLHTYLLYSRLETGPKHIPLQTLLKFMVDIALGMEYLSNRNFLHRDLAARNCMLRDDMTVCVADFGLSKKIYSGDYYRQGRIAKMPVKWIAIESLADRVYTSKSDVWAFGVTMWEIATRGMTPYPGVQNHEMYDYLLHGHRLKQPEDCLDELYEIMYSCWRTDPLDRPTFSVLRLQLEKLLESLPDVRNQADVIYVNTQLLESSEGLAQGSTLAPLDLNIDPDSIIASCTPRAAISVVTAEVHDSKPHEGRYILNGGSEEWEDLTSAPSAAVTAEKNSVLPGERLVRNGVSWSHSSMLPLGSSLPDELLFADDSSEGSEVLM
Procedure, shortened: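 HUVECs starved 3-4 h in basal medium, preincubated with compound 1 h at 37° C, then stimulated 10 min with cross-linked anti-human MerTK antibody (final 1 ug/mL). Lysates read for pAkt (Ser473) by HTRF; EC50 from curve fitting.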

**Q.** With `O=c1c2cc(N3CCN(CC(F)(F)F)CC3)ccc2c2cnc(NCC3CC3)nc2n1[C@H]1CC[C@H](O)CC1` [Compound 104, trans-3-((Cyclopropylmethyl)amino)-5-(4-hydroxycyclohexyl)-8-(4-(2,2,2-trifluoroethyl)piperazin-1-yl)pyrimido[4,5-c]isoquinolin-6(5H)-one] as the compound, how does the pEC50 read?
**A.** Its pEC50 is 6.54.

**Q.** How did the pEC50 turn out when `O=c1c2cc(N3CCN(CC(F)F)CC3)ccc2c2cnc(NCC3CC3)nc2n1[C@H]1CC[C@H](O)CC1` [Compound 105, trans-3-((Cyclopropylmethyl)amino)-8-(4-(2,2-difluoroethyl)piperazin-1-yl)-5-(4-hydroxycyclohexyl)pyrimido [4,5-c]isoquinolin-6(5H)-one] was run?
**A.** The pEC50 was 6.45.

**Q.** With `C[C@@H]1CN(c2ccc3c(c2)c(=O)n([C@H]2CC[C@H](O)CC2)c2nc(NCC4CC4)ncc32)CCN1C` [Compound 106, trans-3-((Cyclopropylmethyl)amino)-8-((R)-3,4-dimethylpiperazin-1-yl)-5-(4-hydroxycyclohexyl)pyrimido [4,5-c]isoquinolin-6(5H)-one] as the compound, how does the pEC50 read?
**A.** The pEC50 was 7.15.

**Q.** With `C[C@@H]1CN(c2ccc3c(c2)c(=O)n([C@H]2CC[C@H](O)CC2)c2nc(NCC4CC4)ncc32)[C@@H](C)CN1C` [Compound 107, trans-3-((Cyclopropylmethyl)amino)-5-(4-hydroxycyclohexyl)-8-((2S,5R)-2,4,5-trimethylpiperazin-1-yl)pyrimido[4,5-c]isoquinolin-6(5H)-one] as the compound, how does the pEC50 read?
**A.** Its pEC50 is 7.24.

**Q.** How did the pEC50 turn out when `O=c1c2cc(N3CCNCC3)ccc2c2cnc(NCC3CC3)nc2n1[C@H]1CC[C@H](O)CC1` [Compound 108, trans-3-((Cyclopropylmethyl)amino)-5-(4-hydroxycyclohexyl)-8-(piperazin-1-yl)pyrimido[4,5-c]isoquinolin-6(5H)-one] was run?
**A.** The pEC50 was 6.77.

**Q.** `CC(C)N1CCN(c2ccc3c(c2)c(=O)n([C@H]2CC[C@H](O)CC2)c2nc(NCC4CC4)ncc32)CC1` [Compound 109, trans-3-((Cyclopropylmethyl)amino)-5-(4-hydroxycyclohexyl)-8-(4-isopropylpiperazin-1-yl)pyrimido[4,5-c]isoquinolin-6(5H)-one] was tested. Which pEC50 did it give?
**A.** Its pEC50 is 7.01.

**Q.** How did the pEC50 turn out when `O=c1c2cc(N3CCN(C4CC4)CC3)ccc2c2cnc(NCC3CC3)nc2n1[C@H]1CC[C@H](O)CC1` [Compound 110, trans-3-((Cyclopropylmethyl)amino)-8-(4-cyclopropylpiperazin-1-yl)-5-(4-hydroxycyclohexyl)pyrimido [4,5-c]isoquinolin-6(5H)-one] was run?
**A.** The pEC50 was 6.32.

**Q.** With `O=c1c2cc(N3CCN(C4COC4)CC3)ccc2c2cnc(NCC3CC3)nc2n1[C@H]1CC[C@H](O)CC1` [Compound 111, trans-3-((Cyclopropylmethyl)amino)-5-(4-hydroxycyclohexyl)-8-(4-(oxetan-3-yl)piperazin-1-yl)pyrimido[4,5-c]isoquinolin-6(5H)-one] as the compound, how does the pEC50 read?
**A.** Its pEC50 is 6.42.

**Q.** With `CCCCNc1ncc2c3ccccc3c(=O)n(C3CC4(CC(O)C4)C3)c2n1` (stereo not shown) [Compound 112, 3-(Butylamino)-5-(6-hydroxyspiro[3,3]heptan-2-yl)pyrimido[4,5-c]isoquinolin-6(5H)-one] as the compound, how does the pEC50 read?
**A.** The pEC50 was 6.33.

**Q.** `CCCCNc1ncc2c3ccccc3c(=O)n(C3CCC(C)(O)CC3)c2n1` (stereo not drawn) [Compound 113, trans-3-(Butylamino)-5-(4-hydroxy-4-methylcyclohexyl)pyrimido [4,5-c]isoquinolin-6(5H)-one] was tested. Which pEC50 did it give?
**A.** The pEC50 was 7.35.

**Q.** With `O=c1c2ccccc2c2cnc(NCC3CC3)nc2n1[C@H]1CC[C@H](O)CC1` [Compound 114, trans-3-((Cyclopropylmethyl)amino)-5-(4-hydroxycyclohexyl)pyrimido [4,5-c]isoquinolin-6(5H)-one] as the compound, how does the pEC50 read?
**A.** The pEC50 was 6.13.

**Q.** How did the pEC50 turn out when `CCCCNc1ncc2c3ccccc3c(=O)n([C@H]3CC[C@@](C)(O)CC3)c2n1` [Compound 115, cis-3-(Butylamino)-5-(4-hydroxy-4-methylcyclohexyl)pyrimido [4,5-c]isoquinolin-6(5H)-one] was run?
**A.** The pEC50 was 6.26.

**Q.** With `CCC1(CNc2ncc3c4ccccc4c(=O)n([C@H]4CC[C@H](O)CC4)c3n2)CCC1` [Compound 116, trans-3-(((1-Ethylcyclobutyl)methyl)amino)-5-(4-hydroxycyclohexyl)pyrimido [4,5-c]isoquinolin-6(5H)-one] as the compound, how does the pEC50 read?
**A.** The pEC50 was 5.34.

**Q.** How did the pEC50 turn out when `O=c1c2ccccc2c2cnc(NCC3CCC3)nc2n1[C@H]1CC[C@H](O)CC1` [Compound 117, trans-3-((Cyclobutylmethyl)amino)-5-(4-hydroxycyclohexyl)pyrimido [4,5-c]isoquinolin-6(5H)-one] was run?
**A.** The pEC50 was 6.49.

**Q.** With `CCC(F)(F)CNc1ncc2c3ccccc3c(=O)n([C@H]3CC[C@H](O)CC3)c2n1` [Compound 119, trans-3-((2,2-difluorobutyl)amino)-5-(4-hydroxycyclohexyl)pyrimido [4,5-c]isoquinolin-6(5H)-one] as the compound, how does the pEC50 read?
**A.** Its pEC50 is 4.80.

**Q.** How did the pEC50 turn out when `O=c1c2ccccc2c2cnc(NCCC3CC3)nc2n1[C@H]1CC[C@H](O)CC1` [Compound 120, trans-3-((2-Cyclopropylethyl)amino)-5-(4-hydroxycyclohexyl)pyrimido [4,5-c]isoquinolin-6(5H)-one] was run?
**A.** Its pEC50 is 6.45.

**Q.** `CC1(O)CCC(n2c(=O)c3ccccc3c3cnc(NCC4CC4)nc32)CC1` (stereo not drawn) [Compound 121, trans-3-((Cyclopropylmethyl)amino)-5-(4-hydroxy-4-methylcyclohexyl)pyrimido[4,5-c]isoquinolin-6(5H)-one] was tested. Which pEC50 did it give?
**A.** Its pEC50 is 6.21.

**Q.** `C[C@]1(O)CC[C@H](n2c(=O)c3ccccc3c3cnc(NCCC4CC4)nc32)CC1` [Compound 122, trans-3-((2-Cyclopropylethyl)amino)-5-(4-hydroxy-4-methylcyclohexyl)pyrimido [4,5-c]isoquinolin-6(5H)-one] was tested. Which pEC50 did it give?
**A.** The pEC50 was 6.78.

**Q.** With `C[C@]1(O)CC[C@H](n2c(=O)c3ccccc3c3cnc(NCC4CCC4)nc32)CC1` [Compound 123, trans-3-((Cyclobutylmethyl)amino)-5-(4-hydroxy-4-methylcyclohexyl)pyrimido [4,5-c]isoquinolin-6(5H)-one] as the compound, how does the pEC50 read?
**A.** The pEC50 was 7.12.

**Q.** `O=c1c2cc(CN3CCN(c4ccncc4)CC3)ccc2c2cnc(NCC3CC3)nc2n1[C@H]1CC[C@H](O)CC1` [Compound 124, trans-3-((Cyclopropylmethyl)amino)-5-(4-hydroxycyclohexyl)-8-((4-(pyridin-4-yl)piperazin-1-yl)methyl)pyrimido[4,5-c]isoquinolin-6(5H)-one] was tested. Which pEC50 did it give?
**A.** Its pEC50 is 7.44.

**Q.** With `CCCCNc1ncc2c3ccc(CN4CCN(C)CC4)cc3c(=O)n([C@H]3CCC[C@H](O)CCC3)c2n1` [Compound 127, 3-(Butylamino)-5-((1r,5r)-5-hydroxycyclooctyl)-8-((4-methylpiperazin-1-yl)methyl)pyrimido[4,5-c]isoquinolin-6(5H)-one] as the compound, how does the pEC50 read?
**A.** Its pEC50 is 7.05.

**Q.** How did the pEC50 turn out when `CCCCNc1ncc2c3ccc(CN4CCN(C)CC4)cc3c(=O)n([C@H]3CC[C@H](C#N)CC3)c2n1` [Compound 128] was run?
**A.** Its pEC50 is 6.90.

**Q.** With `CC(C)CCNc1ncc2c3ccc(CN4CCN(C)CC4)cc3c(=O)n([C@H]3CC[C@H](O)CC3)c2n1` [Compound 129] as the compound, how does the pEC50 read?
**A.** Its pEC50 is 7.34.

**Q.** `CC(C)CNc1ncc2c3ccc(CN4CCN(C)CC4)cc3c(=O)n([C@H]3CC[C@H](O)CC3)c2n1` [Compound 130, trans-5-(4-hydroxycyclohexyl)-3-(isobutylamino)-8-((4-methylpiperazin-1-yl)methyl)pyrimido[4,5-c]isoquinolin-6(5H)-one] was tested. Which pEC50 did it give?
**A.** Its pEC50 is 7.29.

**Q.** How did the pEC50 turn out when `CCCCNc1ncc2c3ccc(CN4CCN(C)CC4)cc3c(=O)n([C@H]3CC[C@H](C(N)=O)CC3)c2n1` [Compound 131, trans-4-(3-(Butylamino)-8-((4-methylpiperazin-1-yl)methyl)-6-oxopyrimido[4,5-c]isoquinolin-5(6H)-yl)cyclohexane-1-carboxamide] was run?
**A.** Its pEC50 is 7.26.
